Earlier results as cited in US5385907A, “Ointments containing FK-506 or derivatives thereof” (priority 1990, dated 1995).

Details: dissolved in ethanol (EP-A-315978)

C=CCC1C=C(C)CC(C)CC(OC)C2OC(O)(C(=O)C(=O)N3CCCCC3C(=O)OC(C(C)=CC3CCC(O)C(OC)C3)C(C)C(O)CC1=O)C(C)CC2OC (stereo not shown) [FK 506 substance, 17-allyl-1,14-dihydroxy-12-[2-(4-hydroxy-3-methoxycyclohexyl)-1-methylvinyl]-23,25-dimethoxy-13,19,21,27-tetramethyl-11,28-dioxa-4-azatricyclo[22.3.1.0^4,9]octacos-18-ene-2,3,10,16-tetraone]
inflammatory inhibition: effective against inflammatory inhibition
